The source of these data is US20210355106A1, “NEW AMINO-PYRIMIDONYL-PIPERIDINYL DERIVATIVES, A PROCESS FOR THEIR PREPARATION AND PHARMACEUTICAL COMPOSITIONS CONTAINING THEM” (LES LABORATOIRES SERVIER, priority 2018, published 2021).

For one assay, the target named is T1, USP7 (Homo sapiens, UniProt Q93009, C315A).
T1 construct: 0.25 nM His-His-USP7 (aa208-560, |C315A|) was incubated with compound; His-His (N)
The assay can be described thus: Inhibition of USP7 by Fluorescence Intensity (FLINT) readings, Ubiquitin-Rhodamine-110 substrate. It is filed as biochemical. The following applies: 0.25 nM His-His-USP7 (aa208-560), 60 minutes at 30° C. preincubation; Ki determined from IC50 according to Cer et al. As for the experimental part:
USP7 activity was measured using Rhodamine-110 c-terminal labelled Ubiquitin as a substrate (UbiQ Bio), Incubation with USP7 results in the release of Rhodamine-110 leading to an increase in fluorescence which can be used in the continuous measurement of USP7 activity.
The USP7 reactions were performed in a 50 μL volume, in 384 well black solid low binding plates (Corning #3575). The reaction buffer consisted of 100 mM Bicine pH 8.0, 0.01% TritonX 100, 1 mM TCEP, and 10% DMSO.
0.25 nM His-His-USP7 (aa208-560, |C315A|) was incubated with compound (final concentration 10% DMSO) for 60 minutes at 30° C. The reaction was then initiated by the addition of 50) nM Ubiquitin-Rhodamine-110 substrate or 4 μM Ubiquitin-Rhodamine-110 substrate and the plate read every 3 minutes for 21 minutes to measure the release of Rhodamine-110. Fluorescence Intensity (FLINT) readings were measured using a Biomek Neo plate reader (Ex.485 nm, Em.535 nm).
The inhibition of increasing doses of compound was expressed as a percentage reduction in kinetic rate compared to the kinetic rates established between ‘DMSO only’ and ‘total inhibition’ controls (no USP7). The inhibitory concentrations that gave a 50% reduction in kinetic rate (IC50) were determined, from 11-point dose response curves, in XL-Fit using a 4-Parameter Logistic Model 205 (Sigmoidal Dose-Response Model). The K, values were determined from the IC50 values according to Cer et al. Nucleic Acids Res. 2009, July 1; 37 (WebServer issue): W441-W445.

Assay [1] deals with Z138 mantle cell lymphoma tumour cell lines. The assay can be described thus: In vitro cytotoxicity, MTT assay. It is filed as cell-based. The following applies: Z138 cells, exposed to the test compounds for 96 hours. As for the experimental part: The cytotoxicity studies were evaluated by MTT [3-(4,5-dimethylthiaxol-2-yl)-2,5-diphenyltetrazolium bromide|assay and carried out on Z138 mantle cell lymphoma tumour cell lines. The cells are distributed onto microplates and exposed to the test compounds for 96 hours. MTT is then added for 4 hours and converted by NAD(P)H-dependent cellular oxidoreductase enzymes in forma/an, which has a purple color. The viable cell number is proportional to the production of formazan salts and cell viability can be quantified by the absorbance of the solution at 540 nm with a spectrophotometer (Carmichael et al., Cancer Res. 1987, 47, 936-942).

Counter-ions that a name gives are not always drawn.

T1 sequence (Q93009 208-560 C315A): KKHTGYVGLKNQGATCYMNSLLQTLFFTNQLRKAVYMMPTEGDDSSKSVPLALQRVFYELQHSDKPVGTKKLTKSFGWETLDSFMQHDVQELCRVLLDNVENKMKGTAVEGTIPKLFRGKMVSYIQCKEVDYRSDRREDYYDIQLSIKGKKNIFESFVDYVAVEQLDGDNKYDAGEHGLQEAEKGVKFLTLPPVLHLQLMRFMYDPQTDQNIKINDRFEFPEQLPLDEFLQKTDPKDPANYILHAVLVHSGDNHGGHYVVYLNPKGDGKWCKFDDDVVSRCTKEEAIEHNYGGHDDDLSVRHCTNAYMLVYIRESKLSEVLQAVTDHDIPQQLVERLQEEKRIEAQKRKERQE

“5-amino-3-[(3SR,4SR)-3-fluoro-4-hydroxy-1-(3R,4R)-1-[4-methyl-2-(6-methyl-3-pyridyl)thiazole-5-carbonyl]-3-phenyl-piperidine-4-carbonyl]-4-piperidyl]methyl]-6-(4-fluorophenoxy)pyrimidin-4-one and 5-amino-3-[[(3RS,4RS)-3-fluoro-4-hydroxy-1-[(3R,4R)-1-[4-methyl-2-(6-methyl-3-pyridyl)thiazole-5-carbonyl]-3-phenyl-piperidine-4-carbonyl]-4-piperidyl]methyl]-6-(4-fluorophenoxy)pyrimidin-4-one [Example 198]”: the affinity on USP7, expressed as Ki, was 10.7 nM. In assay [1], this compound yielded an IC50 of 3.14 nM.
Consider “5-amino-3-[[(3SR,4RS)-3-fluoro-4-hydroxy-1- (3R,4R)-1-[4-methyl-2-(6-methyl-3-pyridyl)thiazole-5-carbonyl]-3-phenyl-piperidine-4carbonyl]-4-piperidyl]methyl]-6-(4-fluorophenoxy)pyrimidin-4-one and 5-amino-3-[[(3RS,4SR)-3-fluoro-4-hydroxy-1-(3R,4R)-1-[4-methyl-2-(6-methyl-3-pyridyl)thiazole-5-carbonyl]-3-phenyl-piperidine-4-carbonyl]-4-piperidyl]methyl]-6-(4-fluorophenoxy)pyrimidin-4-one [Example 197]”, for which the affinity at USP7, expressed as Ki, was 14 nM. Half-maximal inhibition in assay [1] (IC50) required 9.7 nM.
The compound `Nc1c(Oc2ccc(F)cc2)ncn(C[C@@]2(O)CCN(C(=O)[C@@H]3CCNC[C@H]3c3ccccc3)CC2(F)F)c1=O` [Example 11, 5-amino-3-[[(4S)-3,3-difluoro-4-hydroxy-1-[(3R,4R)-3-phenylpiperidine-4-carbonyl]-4-piperidyl]methyl]-6-(4-fluorophenoxy)pyrimidin-4-one] displayed an inhibition constant Ki on USP7 of 99.4 nM. Also, 390 nM corresponded to half-maximal inhibition in assay [1] (Homo sapiens, Z-138) (IC50).
At USP7, `Cc1nccc(CN2CC[C@@H](C(=O)N3CC[C@](O)(Cn4cnc(Oc5ccc(F)cc5)c(N)c4=O)C(F)(F)C3)[C@H](c3ccccc3)C2)n1` [Example 13, 5-amino-3-{[(4S)-3,3-difluoro-4-hydroxy-1-{(3R,4R)-1-[(2-methylpyrimidin-4-yl)methyl]-3-phenylpiperidine-4-carbonyl]piperidin-4-yl]methyl)-6-(4-fluorophenoxy)pyrimidin-4(31)-one] had an inhibitory constant (Ki) of 23.3 nM. Moreover, half-maximal inhibition in assay [1] (Homo sapiens, Z-138) (IC50) was put at 10.6 nM.
Take `Cc1ccc(-c2nc(C)c(C(=O)N3CC[C@@H](C(=O)N4CCC(O)(Cn5cnc(Oc6ccc(Cl)cc6)c(N)c5=O)CC4)[C@H](c4ccccc4)C3)s2)cn1` [Example 22, 5-amino-6-(4-chlorophenoxy)-3-[(4-hydroxy-1-{(3R,4R)-1-[4-methyl-2-(6-methylpyridin-3-yl)-1,3-thiazole-5-carbonyl]-3-phenylpiperidine-4-carbonyl}piperidin-4-yl)methyl]pyrimidin-4(3H)-one]: affinity on USP7 was put at a Ki of 3 nM. In addition, 4 nM corresponded to half-maximal inhibition in assay [1] (Homo sapiens, Z-138) (IC50).
Consider `COc1cc(Cl)cc(Oc2ncn(CC3(O)CCN(C(=O)[C@@H]4CCN(C(=O)c5sc(-c6ccc(C)nc6)nc5C)C[C@H]4c4ccccc4)CC3)c(=O)c2N)c1` [Example 23, 5-amino-6-(3-chloro-5-methoxyphenoxy)-3-((4-hydroxy-1-((3R,4R)-1-[4-methyl-2-(6-methylpyridin-3-yl)-1,3-thiazole-5-carbonyl]-3-phenylpiperidine-4-carbonyl}piperidin-4-yl)methyl]pyrimidin-4(3/I)-one], for which the Ki at USP7 was found to be 7.46 nM. In assay [1] (Homo sapiens, Z-138), this compound returned an IC50 of 2.77 nM.
In turn, `Cc1ccc(-c2nc(C)c(C(=O)N3CC[C@@H](C(=O)N4CCC(O)(Cn5cnc(Oc6ccc(Cl)c(F)c6)c(N)c5=O)CC4)[C@H](c4ccccc4)C3)s2)cn1` [Example 24, 5-amino-6-(4-chloro-3-fluorophenoxy)-3-[(4-hydroxy-1-{(3R,4R)-1-[4-methy-2-(6-methylpyridin-3-yl)-1,3-thiazole-5-carbonyl]-3-phenylpiperidine-4-carbonyl}piperidin-4-yl)methyl]pyrimidin-4(3H)-one] gave an inhibition constant (Ki) at USP7 of 4 nM. In addition, in assay [1] (Homo sapiens, Z-138), inhibition was half-maximal at 9.9 nM (IC50).
At USP7, `COc1cc(Oc2ncn(CC3(O)CCN(C(=O)[C@@H]4CCN(C(=O)c5sc(-c6ccc(C)nc6)nc5C)C[C@H]4c4ccccc4)CC3)c(=O)c2N)ccc1F` [Example 25] gave an inhibition constant Ki of 2.9 nM. The compound also gave an IC50 in assay [1] (Homo sapiens, Z-138) of 2.3 nM.
Regarding `Cc1ccc(-c2nc(C)c(C(=O)N3CC[C@@H](C(=O)N4CCC(O)(Cn5cnc(Oc6cccc(C(F)(F)F)c6)c(N)c5=O)CC4)[C@H](c4ccccc4)C3)s2)cn1` [Example 26], at USP7, the inhibitory constant (Ki) was determined as 6.1 nM. The compound also displayed an IC50 in assay [1] (Homo sapiens, Z-138) of 20 nM.
On USP7, `Cc1ccc(-c2nc(C)c(C(=O)N3CC[C@@H](C(=O)N4CCC(O)(Cn5cnc(Oc6cccc(OC(F)(F)F)c6)c(N)c5=O)CC4)[C@H](c4ccccc4)C3)s2)cn1` [Example 27, 5-amino-3-[(4-hydroxy-1-((3R,4R)-1-[4-methyl-2-(6-methylpyridin-3-yl)-1,3-thiazole-5-carbonyl]-3-phenylpiperidine-4carbonyl}piperidin-4-yl)methyl]-6-[3-(trifluoromethoxy)phenoxy]pyrimidin-4(3H)-one] showed an inhibitory constant (Ki) of 8.8 nM. Further, the IC50 in assay [1] (Homo sapiens, Z-138) came out at 17 nM.
With `Cc1nc(-c2cccs2)sc1C(=O)N1CC[C@@H](C(=O)N2CCC(O)(Cn3cnc(Oc4ccc(F)cc4)c(N)c3=O)CC2)[C@H](c2ccccc2)C1` [Example 150, 5-amino-6-(4-fluorophenoxy)-3-[[4-hydroxy-1-[(3R,4R)-1-[4-methyl-2-(2-thienyl)thiazole-5-carbonyl]-3-phenyl-piperidine-4-carbonyl]-4-piperidyl]methyl]pyrimidin-4-one], the Ki on USP7 turned out to be 21.9 nM. This counts as double-digit nanomolar.
For the compound `Nc1c(Oc2cccnc2)ncn(CC2(O)CCN(C(=O)[C@@H]3CCNC[C@H]3c3ccccc3)CC2)c1=O` [Example 151, 5-amino-3-[[4-hydroxy-1-[(3R,4R)-3-phenylpiperidine-4-carbonyl]-4-piperidyl]methyl]-6-(3-pyridyloxy)pyrimidin-4-one, hydrochloride], the affinity at USP7, expressed as Ki, was 214 nM.
Take `COc1ccc(C2(N3CC[C@@H](C(=O)N4CCC(O)(Cn5cnc(Oc6ccc(F)cc6)c(N)c5=O)CC4)[C@H](c4ccccc4)C3)COC2)cc1` [Example 156, 5-amino-6-(4-fluorophenoxy)-3-[[4-hydroxy-1-[(3R,4R)-1-[3-(4-methoxyphenyl)oxetan-3-yl]-3-phenyl-piperidine-4-carbonyl]-4-piperidyl]methyl]pyrimidin-4-one]: at USP7, the affinity corresponds to a Ki of 140 nM. This Ki is about 1.5-fold lower than that of the compound before.
As for `Nc1c(Oc2ccc(F)cc2)ncn(CC2(O)CCN(C(=O)[C@@H]3CCN(C4(c5cccc(Br)c5)COC4)C[C@H]3c3ccccc3)CC2)c1=O` [Example 170, 5-amino-3-[[1-[(3R,4R)-1-[3-(3-bromophenyl)oxetan-3-yl]-3-phenyl-piperidine-4-carbonyl]-4-hydroxy-4-piperidyl]methyl]-6-(4-fluorophenoxy)pyrimidin-4-one], affinity at USP7 was put at a Ki of 78.5 nM. This Ki lies about 1.8-fold lower than the previous one.
The compound `COc1cc(Oc2ncn(C[C@@]3(O)CCN(C(=O)[C@@H]4CCN(Cc5ccncn5)C[C@H]4c4ccccc4)CC3(F)F)c(=O)c2N)ccc1F` [Example 220, 5-amino-3-[[(4S)-3,3-difluoro-4-hydroxy-1-[(3R,4R)-3-phenyl-1-(pyrimidin-4-ylmethyl)piperidine-4-carbonyl]-4-piperidyl]methyl]-6-(4-fluoro-3-methoxy-phenoxy)pyrimidin-4-one] showed an inhibitory constant (Ki) at USP7 of 98.2 nM.
